Results from article PMC11232401, “Characterization of antimalarial activity of artemisinin-based hybrid drugs” (Antimicrobial Agents and Chemotherapy, 2024).
Where two headings read alike, the source gives them in different places.

What was measured:
[1] = test system: hematin (iron III)-initiated β-hematin formation; test: β-hematin inhibitory activity under oxidizing condition (O-BHIA); format: biochemical; conditions: hematin as starting reagent; mean (95% CI)
Method: The compounds were dissolved in DMSO and diluted in DMSO to six different concentrations (1.0–32 mM). Hemin (Fe^III[PPIX]Cl) (BioXtra, Sigma-Aldrich) was first dissolved in 0.1 M NaOH and then suspended in an 80:20 vol/vol mixture of DMSO and propionate buffer (0.1 M, pH 5.6) to a stock solution at 8 mM. Reduced glutathione (GSH) was dissolved in 0.1 M NaOH and then adjusted to 10 mM using propionate buffer (0.1 M, pH 5.6). For β-hematin inhibitory activity (BHIA) under the reducing condition (R-BHIA), hemin (10 µL) and GSH (10 µL) were distributed in a 96-well plate and homogenized, and the plates were sealed using a thin plastic film and incubated for 1 h at 37°C. Then, 20 µL of the drug was added, and the plates were incubated for 2 h at 37°C. The plastic film was removed after drug incubation, 160 µL propionate buffer (1.0 M, pH 5.6) was added, and plates were incubated for 18 h at 37°C. BHIA under the oxidizing condition (O-BHIA) was prepared in parallel without adding GSH. Controls included wells without drugs and wells containing PBS 1× instead of propionate buffer. Afterward, the plates were centrifuged, the supernatant was discarded, and the pellets of β-hematin crystals were washed twice with pure DMSO and then water. The resulting β-hematin crystals were then dissolved in 200 µL 0.1 M NaOH and diluted to a 1:8 ratio. Aliquots were then transferred into a new plate and read by UV-visible absorbance at […]. Percent of BHIA was calculated in comparison to untreated wells (no drugs), and IC50 was then calculated. Two independent experiments were performed using three replicates of each drug concentration ([46]).
Figure S6: A summary of IC50 values derived from β-hematin inhibitory activity (BHIA). Footnotes for table: ^[a,b^] Values are mean and 95% confidence interval of one experiment, each concentration in triplicate. ^[a] Using heme (Fe[II]PPIX[Cl]) as a starting reagent. ^[b] Using hematin (Fe[III]PPIX[OH]) as a starting reagent. ^[c] […] CQ = chloroquine. R-BHIA = reducing β-hematin inhibitory activity. O-BHIA = oxidizing β-hematin inhibitory activity.

[2] = parameters: method as in PMID 15124211; conditions: cited from earlier work
[3] = elimination half-life; cited from earlier work
[4] = In vitro metabolic stability assay in microsomes; format: in vitro ADME; conditions: for half-life at 1 µM: read-out: Degradation half-life; for microsomal CLint at 1 µM: 0.4 mg/mL
Method: In vitro microsomal stability assay was performed in duplicate in a 96-well microtiter plate, using a single-point experiment design ([42]). Test compounds (1 µM) were incubated individually in human (pool of 50, mixed gender), rat (pool of 711, male Sprague Dawley), and mouse (pool of 1,634, male CD1) liver microsomes (Xenotech, Kansas, USA) to a final protein concentration of 0.4 mg/mL, suspended in 0.1 M phosphate buffer (pH 7.4). Incubations were started by the addition of NADPH (1 mM) as a cofactor and shaken for 30 min at 37°C. The reactions were quenched by the addition of 300 µL of ice-cold acetonitrile containing an internal standard (carbamazepine, 0.0236 µg/mL) and centrifuged. The supernatant was transferred to a fresh 96-well plate and analyzed by liquid chromatography-tandem mass spectrometry (LC-MS/MS) (Agilent Rapid Resolution HPLC, AB SCIEX 4500 MS). The relative loss of the parent compound over time was monitored, and plots (concentration vs time) were prepared per compound to determine the first-order rate constant for compound depletion. This was in turn used to calculate half-life, in vitro intrinsic clearance (Clint), and in vivo hepatic extraction ratio ([43]).

[5] = test system: F32-ART (resistant) early ring-stage parasites; test: Ring-stage survival assay (RSA0-3h); format: cell-based, Plasmodium falciparum; conditions: 700 nM, 6 h pulse, 66 h growth
Method: Early ring-stage parasites (0–3 h post-invasion) of F32-ART and F32-TEM strains highly synchronized by Percoll-Sorbitol treatment were exposed to 700 nM of the drugs or 0.1% DMSO (control) for 6 h. Each drug was tested in duplicate. Parasite pellets were then washed in RPMI-1640 medium before being placed in drug-free culture conditions with 10% human serum and incubated for 66 h ([44]). Survival rates were assessed microscopically by two independent microscopists by counting the parasites in 10,000 RBCs. Three independent experiments were performed.

P. falciparum 3D7 strain = test system: P. falciparum 3D7 strain; parameters: method as in PMID 31290221, PMID 34832911, PMID 38559731; conditions: asynchronous culture, SYBR Green I; read-out: IC50 (nM, median ± SEM) for P. falciparum 3D7 strain; cited from earlier work
P. berghei-infected mice = test system: P. berghei-infected mice; parameters: method as in PMID 31290221, PMID 34832911, PMID 38559731; conditions: Peters test; cited from earlier work
[6] = both sexes, pH 7.4, human liver microsomes
[7] = both sexes, human liver microsomes, pH 7.4
[8] = male, CD1, pH 7.4, mouse liver microsomes
[9] = male, CD1, mouse liver microsomes, pH 7.4
[10] = male, Sprague Dawley, pH 7.4, rat liver microsomes
[11] = male, Sprague Dawley, rat liver microsomes, pH 7.4

| Structure (SMILES) | IC50 [1] [mM] | plasma peak of DHA in patients [2] [nM] | half-life (t1/2) [3] [h] | half-life at 1 µM [4, 6] [min] | microsomal CLint at 1 µM [4, 7] [µL/min/mg] | Drug remaining after 30 min ([4]; human liver microsomes) [%] | half-life at 1 µM [4, 8] [min] | microsomal CLint at 1 µM [4, 9] [µL/min/mg] | half-life at 1 µM [4, 10] [min] | microsomal CLint at 1 µM [4, 11] [µL/min/mg] | Drug remaining after 30 min ([4]; mouse liver microsomes) [%] | Drug remaining after 30 min ([4]; rat liver microsomes) [%] | Survival rate (%) from the RSA0-3h, F32-ART (resistant) ([5]; listed as 1) [%] | Survival rate (%) from the RSA0-3h, F32-ART (resistant) ([5]; listed as hybrid 1) [%] | IC50 (P. falciparum 3D7 strain) [nM] | In vivo parasitemia reduction (%) (P. berghei-infected mice) | Survival rate (%) from the RSA0-3h, F32-ART (resistant) ([5]; listed as 2) [%] | Survival rate (%) from the RSA0-3h, F32-ART (resistant) ([5]; listed as hybrid 2) [%] |
| --- | --- | --- | --- | --- | --- | --- | --- | --- | --- | --- | --- | --- | --- | --- | --- | --- | --- | --- |
| C[C@H]1[C@@H](O)O[C@@H]2O[C@@]3(C)CC[C@H]4[C@H](C)CC[C@@H]1[C@@]24OO3 [DHA, dihydroartemisinin, reference compound] | > 1 | 700 | 1 to 3 | – | – | – | – | – | – | – | – | – | – | – | – | – | – | – |
| COCCOCCOCCOCCn1c(-c2ccc(-n3cc(-c4ccc(OC5OC6OC7(C)CCC8C(C)CCC(C5C)C68OO7)cc4)nn3)cc2)nc2ccccc21 (stereo not drawn) [Hybrid 1] | > 1 | – | – | 5 | 379 | 1 | 7 | 240 | 9 | 186 | 6 | 10 | 2.3 ± 0.7 | ~2 | 3 ± 0.2 | > 99 | – | – |
| CC1CCC2C(C)C(OC(=O)CCC(=O)OCCNc3ccnc4cc(Cl)ccc34)OC3OC4(C)CCC1C32OO4 (stereo not drawn) [Hybrid 2] | – | – | – | 4 | 479 | 0.3 | 6 | 275 | 5 | 376 | 4 | 1 | – | – | 4.5 ± 0.5 | 89.4 ± 1.5 | 14.8 ± 6 | ~15 |
